Measured values taken from ChEMBL document CHEMBL3627608, “Crystal structures of human RIP2 kinase catalytic domain complexed with ATP-competitive inhibitors: Foundations for understanding inhibitor selectivity” (Bioorg Med Chem, 2015).

Key:
[1] = biological target: T1, Serine/threonine-protein kinase Sgk3 (Homo sapiens) (UniProt Q96BR1); assay: Inhibition of SGK3 (unknown origin) at 10 uM after 120 mins P33 radiolabeled kinase activity assay
T1 sequence (whole entry): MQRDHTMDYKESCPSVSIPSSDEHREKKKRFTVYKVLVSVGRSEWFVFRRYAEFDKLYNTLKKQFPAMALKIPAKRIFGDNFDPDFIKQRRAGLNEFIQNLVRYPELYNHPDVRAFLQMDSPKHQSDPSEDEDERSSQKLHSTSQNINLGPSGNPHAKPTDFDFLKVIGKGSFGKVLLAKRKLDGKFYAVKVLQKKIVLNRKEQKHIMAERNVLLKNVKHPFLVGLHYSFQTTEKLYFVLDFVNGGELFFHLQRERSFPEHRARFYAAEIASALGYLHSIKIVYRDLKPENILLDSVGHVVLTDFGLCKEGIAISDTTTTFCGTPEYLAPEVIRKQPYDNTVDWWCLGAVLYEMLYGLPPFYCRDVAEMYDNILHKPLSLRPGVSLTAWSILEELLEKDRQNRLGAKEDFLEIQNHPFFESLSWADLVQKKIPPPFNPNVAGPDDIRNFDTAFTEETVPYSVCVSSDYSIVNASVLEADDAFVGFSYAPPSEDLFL

[2] = biological target: Ribosomal protein S6 kinase beta-2 (Homo sapiens) (UniProt Q9UBS0); assay: Inhibition of RPS6KB2 (unknown origin) at 10 uM after 120 mins P33 radiolabeled kinase activity assay
[3] = biological target: T2, Ephrin type-A receptor 3 (Homo sapiens) (UniProt P29320); assay: Inhibition of EPHA3 (unknown origin) at 10 uM after 120 mins P33 radiolabeled kinase activity assay
T2 sequence (whole entry): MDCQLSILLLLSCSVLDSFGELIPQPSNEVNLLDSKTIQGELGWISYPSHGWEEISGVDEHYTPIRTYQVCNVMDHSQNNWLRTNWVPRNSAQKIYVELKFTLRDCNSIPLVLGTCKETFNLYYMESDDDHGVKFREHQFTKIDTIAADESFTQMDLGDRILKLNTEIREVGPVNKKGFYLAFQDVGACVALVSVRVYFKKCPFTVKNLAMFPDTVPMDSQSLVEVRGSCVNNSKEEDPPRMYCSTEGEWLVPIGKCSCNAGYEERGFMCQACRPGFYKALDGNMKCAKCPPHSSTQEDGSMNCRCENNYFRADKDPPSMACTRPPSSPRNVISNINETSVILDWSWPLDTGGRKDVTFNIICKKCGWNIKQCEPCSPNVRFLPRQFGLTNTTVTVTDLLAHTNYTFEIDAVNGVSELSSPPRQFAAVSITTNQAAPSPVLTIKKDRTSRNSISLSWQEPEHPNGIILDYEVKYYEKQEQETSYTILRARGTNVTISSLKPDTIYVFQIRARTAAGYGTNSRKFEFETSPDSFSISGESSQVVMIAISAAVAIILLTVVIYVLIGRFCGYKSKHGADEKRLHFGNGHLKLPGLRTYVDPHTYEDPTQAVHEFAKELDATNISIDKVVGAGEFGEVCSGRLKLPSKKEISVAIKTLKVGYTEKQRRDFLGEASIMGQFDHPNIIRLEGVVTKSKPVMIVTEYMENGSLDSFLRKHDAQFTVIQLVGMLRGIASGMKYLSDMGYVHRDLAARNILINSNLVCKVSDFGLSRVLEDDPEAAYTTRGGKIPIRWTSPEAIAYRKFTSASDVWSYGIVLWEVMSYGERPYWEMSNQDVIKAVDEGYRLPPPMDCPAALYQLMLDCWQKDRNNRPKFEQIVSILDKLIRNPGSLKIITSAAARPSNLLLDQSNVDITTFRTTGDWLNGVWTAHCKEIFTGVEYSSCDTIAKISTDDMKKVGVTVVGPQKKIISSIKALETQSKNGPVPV

[4] = biological target: T3, Mitogen-activated protein kinase kinase kinase 2 (Homo sapiens) (UniProt Q9Y2U5); assay: Inhibition of MEKK2 (unknown origin) at 10 uM after 120 mins P33 radiolabeled kinase activity assay
T3 sequence (whole entry): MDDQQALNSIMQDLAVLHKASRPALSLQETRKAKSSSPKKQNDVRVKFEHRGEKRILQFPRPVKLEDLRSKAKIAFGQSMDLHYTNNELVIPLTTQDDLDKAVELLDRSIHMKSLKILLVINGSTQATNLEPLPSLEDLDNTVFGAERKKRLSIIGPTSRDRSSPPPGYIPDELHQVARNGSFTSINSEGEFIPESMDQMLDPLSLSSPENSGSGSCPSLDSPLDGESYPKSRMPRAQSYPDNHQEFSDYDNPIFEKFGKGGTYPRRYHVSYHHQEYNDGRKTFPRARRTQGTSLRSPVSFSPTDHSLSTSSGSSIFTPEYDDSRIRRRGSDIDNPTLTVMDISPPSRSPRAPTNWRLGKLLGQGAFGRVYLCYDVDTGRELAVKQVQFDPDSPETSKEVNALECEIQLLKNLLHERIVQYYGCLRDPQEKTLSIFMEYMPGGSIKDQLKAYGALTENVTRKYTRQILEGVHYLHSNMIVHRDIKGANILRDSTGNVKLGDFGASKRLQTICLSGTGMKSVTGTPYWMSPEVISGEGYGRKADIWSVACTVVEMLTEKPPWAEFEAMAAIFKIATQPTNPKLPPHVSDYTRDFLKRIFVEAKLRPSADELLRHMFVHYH

[5] = biological target: Epithelial discoidin domain-containing receptor 1 (Homo sapiens) (UniProt Q08345); assay: Inhibition of DDR1 (unknown origin) at 10 uM after 120 mins P33 radiolabeled kinase activity assay
[6] = biological target: T4, Cytoplasmic tyrosine-protein kinase BMX (Homo sapiens) (UniProt P51813); assay: Inhibition of BMX (unknown origin) at 10 uM after 120 mins P33 radiolabeled kinase activity assay
T4 sequence (whole entry): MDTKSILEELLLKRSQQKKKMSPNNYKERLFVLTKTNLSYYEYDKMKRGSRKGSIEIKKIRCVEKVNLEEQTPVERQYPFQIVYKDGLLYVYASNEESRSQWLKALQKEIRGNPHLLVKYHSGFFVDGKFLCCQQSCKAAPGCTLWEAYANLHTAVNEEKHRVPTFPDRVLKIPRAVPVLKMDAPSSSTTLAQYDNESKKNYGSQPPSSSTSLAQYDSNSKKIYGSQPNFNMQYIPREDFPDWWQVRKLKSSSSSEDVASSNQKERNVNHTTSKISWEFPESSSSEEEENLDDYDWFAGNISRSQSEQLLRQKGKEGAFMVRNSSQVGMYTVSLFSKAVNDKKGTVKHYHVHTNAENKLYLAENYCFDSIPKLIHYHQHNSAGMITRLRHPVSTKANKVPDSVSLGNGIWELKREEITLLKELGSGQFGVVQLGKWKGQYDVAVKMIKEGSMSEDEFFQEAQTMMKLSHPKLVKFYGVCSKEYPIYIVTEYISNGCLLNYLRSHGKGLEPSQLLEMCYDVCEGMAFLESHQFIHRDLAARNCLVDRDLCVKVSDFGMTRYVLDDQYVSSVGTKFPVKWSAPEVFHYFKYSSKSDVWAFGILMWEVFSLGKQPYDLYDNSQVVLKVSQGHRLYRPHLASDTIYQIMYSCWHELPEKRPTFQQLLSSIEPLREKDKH

Epithelial discoidin domain-containing receptor 1 (Homo sapiens), sequence (Q08345 whole entry, the tested form may be a part): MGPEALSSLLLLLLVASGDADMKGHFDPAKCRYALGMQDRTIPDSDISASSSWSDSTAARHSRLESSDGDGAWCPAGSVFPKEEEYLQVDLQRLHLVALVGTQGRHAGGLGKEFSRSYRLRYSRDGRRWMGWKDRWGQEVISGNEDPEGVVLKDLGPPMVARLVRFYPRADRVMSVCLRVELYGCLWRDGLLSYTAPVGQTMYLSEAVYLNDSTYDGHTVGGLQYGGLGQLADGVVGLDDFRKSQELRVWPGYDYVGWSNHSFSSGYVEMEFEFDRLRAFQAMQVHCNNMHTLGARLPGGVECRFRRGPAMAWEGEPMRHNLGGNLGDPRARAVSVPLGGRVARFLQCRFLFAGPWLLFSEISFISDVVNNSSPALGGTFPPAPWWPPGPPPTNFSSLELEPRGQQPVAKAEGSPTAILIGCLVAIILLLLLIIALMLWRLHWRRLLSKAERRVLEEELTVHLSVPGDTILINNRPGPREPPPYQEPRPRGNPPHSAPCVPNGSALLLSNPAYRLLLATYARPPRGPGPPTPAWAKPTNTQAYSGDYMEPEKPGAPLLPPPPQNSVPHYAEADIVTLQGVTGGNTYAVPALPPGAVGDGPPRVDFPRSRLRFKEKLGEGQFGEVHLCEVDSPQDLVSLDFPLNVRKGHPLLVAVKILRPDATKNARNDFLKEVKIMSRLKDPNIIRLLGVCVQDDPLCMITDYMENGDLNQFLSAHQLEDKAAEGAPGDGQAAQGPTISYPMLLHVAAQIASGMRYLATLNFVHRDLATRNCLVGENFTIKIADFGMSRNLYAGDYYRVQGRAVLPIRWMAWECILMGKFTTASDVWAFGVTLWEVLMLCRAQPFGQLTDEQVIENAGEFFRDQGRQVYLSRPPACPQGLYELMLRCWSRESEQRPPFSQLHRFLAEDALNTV
Ribosomal protein S6 kinase beta-2 (Homo sapiens), sequence (Q9UBS0 whole entry): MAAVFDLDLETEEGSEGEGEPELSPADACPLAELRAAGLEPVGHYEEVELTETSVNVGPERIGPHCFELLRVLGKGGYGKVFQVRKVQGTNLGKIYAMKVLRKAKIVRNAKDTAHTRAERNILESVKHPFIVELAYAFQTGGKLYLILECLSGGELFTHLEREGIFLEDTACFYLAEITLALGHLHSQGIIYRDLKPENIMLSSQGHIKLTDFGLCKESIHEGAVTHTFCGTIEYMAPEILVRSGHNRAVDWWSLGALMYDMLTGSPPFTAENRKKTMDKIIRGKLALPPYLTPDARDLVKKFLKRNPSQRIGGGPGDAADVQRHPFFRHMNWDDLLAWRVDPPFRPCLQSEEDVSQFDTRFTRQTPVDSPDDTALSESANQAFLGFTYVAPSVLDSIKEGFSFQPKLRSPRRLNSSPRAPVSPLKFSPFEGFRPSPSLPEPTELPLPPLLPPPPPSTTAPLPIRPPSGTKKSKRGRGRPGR

| Compound | inhibition [1] | inhibition [2] | inhibition [3] | inhibition [4] | inhibition [5] | inhibition [6] |
| --- | --- | --- | --- | --- | --- | --- |
| COCCNC(=O)c1ccc2c(c1)nc(-c1cnc(-c3ccc(Cl)cc3)[nH]1)n2CCOC | 5.07% | 6.27% | 17.5% | 16.7% | 66% | 13.9% |
| CS(=O)(=O)c1cccc(Nc2nccc(-c3sc(N4CCOCC4)nc3-c3cccc(NS(=O)(=O)c4c(F)cccc4F)c3)n2)c1 | 3.98% | 11.1% | 57.4% | 55% | 98.6% | 98% |
| CC(C)(C)c1cc(NC(=O)Nc2ccc(Oc3ccncc3)cc2)no1 | 10% | 52.2% | 91.5% | 23.3% | 98.1% | 15.5% |
